Test results: article doi:10.1101/757047v1 (biorxiv, 2019)
pIC50, pKi: −log10 of the molar value. Like-named read-outs stand apart in the source and are kept apart here.

What was measured:
[1] = molecular target: T1, full length GAK protein N-terminally fused with NanoLuc luciferase (Homo sapiens, UniProt O14976); assay: nanoBRET cellular target engagement; format: cell-based
T1 sequence (O14976 2-1311): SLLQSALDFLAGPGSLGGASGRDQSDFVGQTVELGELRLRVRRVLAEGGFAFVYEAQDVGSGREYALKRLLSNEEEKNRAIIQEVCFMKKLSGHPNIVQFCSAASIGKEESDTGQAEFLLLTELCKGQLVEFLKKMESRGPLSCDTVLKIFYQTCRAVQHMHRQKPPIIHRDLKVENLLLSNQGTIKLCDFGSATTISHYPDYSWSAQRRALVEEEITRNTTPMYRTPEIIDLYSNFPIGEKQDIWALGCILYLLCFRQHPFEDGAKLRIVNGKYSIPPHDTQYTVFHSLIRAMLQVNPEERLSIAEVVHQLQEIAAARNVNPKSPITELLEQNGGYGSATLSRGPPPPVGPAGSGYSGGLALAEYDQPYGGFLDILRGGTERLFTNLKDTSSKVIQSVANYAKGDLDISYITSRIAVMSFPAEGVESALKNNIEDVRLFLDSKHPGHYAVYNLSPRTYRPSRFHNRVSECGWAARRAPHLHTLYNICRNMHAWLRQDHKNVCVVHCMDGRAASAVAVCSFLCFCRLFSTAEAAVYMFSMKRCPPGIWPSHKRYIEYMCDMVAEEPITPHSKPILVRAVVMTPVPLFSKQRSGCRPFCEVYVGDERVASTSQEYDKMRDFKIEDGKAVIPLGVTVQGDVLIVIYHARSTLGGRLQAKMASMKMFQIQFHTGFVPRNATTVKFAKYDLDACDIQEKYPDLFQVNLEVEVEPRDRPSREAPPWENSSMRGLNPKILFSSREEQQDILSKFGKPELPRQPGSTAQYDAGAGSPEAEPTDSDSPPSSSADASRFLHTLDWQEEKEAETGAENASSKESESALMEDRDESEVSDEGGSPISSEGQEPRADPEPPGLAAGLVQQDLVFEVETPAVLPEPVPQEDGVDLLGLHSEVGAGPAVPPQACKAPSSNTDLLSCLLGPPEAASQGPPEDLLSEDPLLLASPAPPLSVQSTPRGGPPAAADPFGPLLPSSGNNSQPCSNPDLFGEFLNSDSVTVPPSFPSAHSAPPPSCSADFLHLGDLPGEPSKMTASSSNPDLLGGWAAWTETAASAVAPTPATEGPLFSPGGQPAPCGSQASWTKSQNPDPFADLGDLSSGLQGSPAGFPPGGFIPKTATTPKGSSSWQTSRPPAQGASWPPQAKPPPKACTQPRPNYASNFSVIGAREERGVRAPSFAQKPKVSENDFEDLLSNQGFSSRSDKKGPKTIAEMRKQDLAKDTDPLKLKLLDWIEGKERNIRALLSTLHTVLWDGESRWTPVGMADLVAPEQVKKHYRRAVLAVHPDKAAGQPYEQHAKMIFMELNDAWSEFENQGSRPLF

[2] = molecular target: T2, SLK (Homo sapiens, UniProt Q9H2G2); assay: TR-FRET binding displacement assay
T2 sequence (Q9H2G2 34-292): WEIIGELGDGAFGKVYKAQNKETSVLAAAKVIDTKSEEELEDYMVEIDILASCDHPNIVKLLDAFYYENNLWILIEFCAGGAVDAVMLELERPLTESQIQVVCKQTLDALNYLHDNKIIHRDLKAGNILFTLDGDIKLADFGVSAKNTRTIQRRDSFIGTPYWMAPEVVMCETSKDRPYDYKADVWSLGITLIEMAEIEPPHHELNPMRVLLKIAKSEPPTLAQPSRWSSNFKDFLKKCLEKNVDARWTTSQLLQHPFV

[3] = molecular target: T3, STK10 (Homo sapiens, UniProt O94804); assay: TR-FRET binding displacement assay
T3 sequence (O94804 36-294 limits assumed): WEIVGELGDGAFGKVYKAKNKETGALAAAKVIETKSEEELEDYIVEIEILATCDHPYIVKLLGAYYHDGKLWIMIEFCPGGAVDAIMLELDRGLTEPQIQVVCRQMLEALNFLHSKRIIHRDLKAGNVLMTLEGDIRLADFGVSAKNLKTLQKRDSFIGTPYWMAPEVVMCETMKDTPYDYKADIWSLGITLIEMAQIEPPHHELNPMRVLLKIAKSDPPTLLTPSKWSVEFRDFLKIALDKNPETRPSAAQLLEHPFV

[4] = molecular target: T4, GAK (Homo sapiens, UniProt O14976); assay: TR-FRET binding displacement assay
T4 sequence (O14976 12-347 limits assumed): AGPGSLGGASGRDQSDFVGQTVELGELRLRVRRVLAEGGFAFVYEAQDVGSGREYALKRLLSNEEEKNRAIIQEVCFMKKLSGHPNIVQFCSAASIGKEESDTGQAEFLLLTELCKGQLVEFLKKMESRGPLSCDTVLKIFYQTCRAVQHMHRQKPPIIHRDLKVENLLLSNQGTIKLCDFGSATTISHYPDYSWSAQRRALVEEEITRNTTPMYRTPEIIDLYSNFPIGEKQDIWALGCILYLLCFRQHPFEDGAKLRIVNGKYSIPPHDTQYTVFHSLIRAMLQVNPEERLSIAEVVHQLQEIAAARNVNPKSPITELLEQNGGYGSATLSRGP

[5] = molecular target: T1, full length GAK protein N-terminally fused with NanoLuc luciferase; assay: cell-based; design: species or system HEK293T
[6] = molecular target: T2, SLK; assay: biochemical
[7] = molecular target: T3, STK10; assay: biochemical
[8] = molecular target: T1, full length GAK protein N-terminally fused with NanoLuc luciferase; assay: cell-based; design: species or system HEK293T; remark: listed apart in the source
[9] = HEK293T cells, tracer displacement, n=[…] mean
[10] = ATP site tracer displacement, 16-point dose response

pKi [2]	pKi [3]	pIC50 [5]	Compound	also measured
5.96	6.23		COc1cc2ncnc(Nc3ccc(F)c(Cl)c3)c2cc1NC(=O)/C=C/CN1CCCCC1 [Dacomitinib]	pIC50 [1]: 7.31; pKi [4]: 8.15
	6.47		COc1cc2ncnc(Nc3ccc(F)c(Cl)c3)c2cc1OCCCN1CCOCC1 [Gefitinib]	
			CCOc1cc2ncc(C#N)c(Nc3ccc(OCc4ccccn4)c(Cl)c3)c2cc1NC(=O)/C=C/CN(C)C [Neratinib]	pIC50 [1]: 5.64; pKi [4]: 6.54
6.55			CCOc1cc2ncc(C#N)c(Nc3ccc(F)c(Cl)c3)c2cc1NC(=O)/C=C/CN(C)C [Pelitinib]	pIC50 [1]: 7.92
5.92	6.14		C#Cc1cccc(Nc2ccnc3cc(OCCOC)c(OCCOC)cc23)c1 [compound 1, erlotinib quinoline]	pIC50 [1, 9]: 5.38; pKi [4]: 7.00
4.47	5.34		COc1cc(Nc2ccnc3ccc(Br)cc23)cc(OC)c1OC [compound 2, SGC-GAK-1]	
5.15	5.96		COc1cc2nccc(Nc3cc(OC)c(OC)c(OC)c3)c2cc1OC [compound 3, 3]	pIC50 [1]: 7.59
< 4.26	4.56		COc1cc(Nc2ccnc3ccccc23)cc(OC)c1OC [compound 7, 7]	pIC50 [1]: 6.14; pKi [4, 10]: 7.40
5.29	4.34		COc1cc(Nc2ccnc3ccc(F)cc23)cc(OC)c1OC [compound 8, 8]	
4.59	5.57		COc1cc(Nc2ccnc3cc(F)c(F)cc23)cc(OC)c1OC [compound 9, 6,7-difluoro-N-(3,4,5-trimethoxyphenyl)quinolin-4-amine]	pIC50 [1]: 6.85; pKi [4]: 8.16
4.96	6.00		COc1cc(Nc2ccnc3ccc(Cl)cc23)cc(OC)c1OC [compound 10, 10]	pIC50 [1]: 6.68; pKi [4]: 9.17
5.24	4.61		COc1cc(Nc2ccnc3ccc(I)cc23)cc(OC)c1OC [compound 11, 11]	pIC50 [1]: 6.96; pKi [4]: 8.42
4.48	5.34		COc1cc(Nc2ccnc3ccc(C(F)(F)F)cc23)cc(OC)c1OC [compound 12, 12]	
4.72	5.77		COc1cc(Nc2ccnc3ccc(C#N)cc23)cc(OC)c1OC [compound 13, 13]	pIC50 [1]: 6.44; pKi [4, 10]: 8.82
< 4.26	4.92		COc1ccc2nccc(Nc3cc(OC)c(OC)c(OC)c3)c2c1 [compound 14, 14]	pIC50 [1]: 6.44; pKi [4, 10]: 7.89
4.64	5.62		COc1cc(Nc2ccnc3ccc(S(C)(=O)=O)cc23)cc(OC)c1OC [compound 15, 15]	
4.77	5.80		COc1cc(Nc2ccnc3cc(F)ccc23)cc(OC)c1OC [compound 16, 16]	
5.68	6.68		COc1cc(Nc2ccnc3cc(Cl)ccc23)cc(OC)c1OC [compound 17, 17]	pIC50 [1]: 6.60; pKi [4]: 8.89
5.57	6.42		COc1cc(Nc2ccnc3cc(Br)ccc23)cc(OC)c1OC [compound 18, 18]	pIC50 [1]: 6.57; pKi [4]: 8.31
5.77	6.68		COc1cc(Nc2ccnc3cc(I)ccc23)cc(OC)c1OC [compound 19, 19]	pIC50 [1]: 7.13; pKi [4]: 8.36
5.49	6.43		COc1cc(Nc2ccnc3cc(C(F)(F)F)ccc23)cc(OC)c1OC [compound 20, 20]	pIC50 [1, 9]: 6.28; pKi [4, 10]: 8.21
		5.34	COc1cc(Nc2ncnc3ccccc23)cc(OC)c1OC [compound 23, 23]	
		5.68	COc1cc(Nc2ncnc3ccc(C)cc23)cc(OC)c1OC [compound 24, 24]	

pKi [2]	pKi [3]	pIC50 [5]	Compound	also measured
		5.44	COc1cc(Nc2ncnc3ccc(F)cc23)cc(OC)c1OC [compound 25, 25]	
		< 5.30	COc1cc(Nc2ncnc3cc(F)c(F)cc23)cc(OC)c1OC [compound 26, 26]	
		5.62	COc1cc(Nc2ncnc3ccc(Cl)cc23)cc(OC)c1OC [compound 27, 27]	
		5.74	COc1cc(Nc2ncnc3ccc(Br)cc23)cc(OC)c1OC [compound 28, 28]	
		6.05	COc1cc(Nc2ncnc3ccc(I)cc23)cc(OC)c1OC [compound 29, 29]	
		5.35	COc1cc(Nc2ncnc3ccc(C(F)(F)F)cc23)cc(OC)c1OC [compound 30, 30]	
		< 5.30	COc1cc(Nc2ncnc3cc(F)ccc23)cc(OC)c1OC [compound 31, 31]	
		5.49	COc1cc(Nc2ncnc3cc(Cl)ccc23)cc(OC)c1OC [compound 32, 32]	
		5.38	COc1cc(Nc2ncnc3cc(Br)ccc23)cc(OC)c1OC [compound 33, 33]	
		5.62	COc1cc(Nc2ncnc3cc(I)ccc23)cc(OC)c1OC [compound 34, 34]	
		< 5.30	COc1cc(Nc2ncnc3cc(C(F)(F)F)ccc23)cc(OC)c1OC [compound 35, 35]	
		< 5.30	COc1cc(Nc2ncnc3cc(C#N)ccc23)cc(OC)c1OC [compound 36, 4-((3,4,5-trimethoxyphenyl)amino)quinazoline-7-carbonitrile]	pKi [4]: 6.68
		< 5.30	COc1cc(Nc2ncnc3ccc(C#N)cc23)cc(OC)c1OC [compound 37, 37]	
		< 5.30	COc1cc(Nc2ncnc3ccc(S(C)(=O)=O)cc23)cc(OC)c1OC [compound 38, 38]	
		5.47	COc1ccc2ncnc(Nc3cc(OC)c(OC)c(OC)c3)c2c1 [compound 39, 39]	
		5.80	COc1ccc2c(Nc3cc(OC)c(OC)c(OC)c3)ncnc2c1 [compound 41, 41]	
		5.52	COCCOc1cc2ncnc(Nc3cc(OC)c(OC)c(OC)c3)c2cc1OCCOC [compound 42, 42]	
			C#Cc1cccc(Nc2ncnc3cc(Cl)ccc23)c1 [compound 63, 63]	pKi [6]: 6.44; pKi [7]: 6.36; pIC50 [8]: < 5.30
			C#Cc1cccc(Nc2ncnc3ccc(S(C)(=O)=O)cc23)c1 [compound 69, N-(3-ethynylphenyl)-6-(methylsulfonyl)quinazolin-4-amine]	pKi [4]: 6.38; pKi [6]: 5.89; pKi [7]: 5.89; pIC50 [8]: < 5.30
6.85	6.92		C#Cc1cccc(Nc2ncnc3cc(OC)c(OC)cc23)c1 [compound 71, 71]	pKi [4]: 9.00
			C#Cc1cccc(Nc2ncnc3cc(OC)c(OC)cc23)c1 [compound 71]	pIC50 [8]: 7.10
			C#Cc1cccc(Nc2ncnc3cc4c(cc23)OCCO4)c1 [compound 74, 74]	pKi [6]: 5.44; pKi [7]: 5.77; pIC50 [8]: 5.49
			C#Cc1cccc(Nc2c(C#N)cnc3cc(OC)c(OC)cc23)c1 [compound 82, 82]	pIC50 ([1]; HEK293T cells, tracer displacement): 7.40; pKi [4, 10]: 9.49
